{"source": "patent US8003602B2", "about": "(priority 2006, dated 2011)", "key": {"B. megaterium FH 1127": {"system": "B. megaterium FH 1127", "assay": "MIC, Macro-broth dilution method", "format": "cell-based, Bacillus megaterium", "description": "(§1) The in-vitro potency was established by minimum inhibitory concentration (MIC) determinations of the compound PM181104 against bacterial strains, by using the Macro-broth dilution method as per National Committee for Clinical Laboratory Standards (2000) guidelines [Journal of Anti-microbial Chemotherapy, 2002, 50, 125-128 (Cross Reference 8: Methods for Dilution Antimicrobial Susceptibility Tests for Bacteria that Grow Aerobically-Fifth Edition: Approved Standard M7-A5. NCCLS, Wayne, Pa., USA)]. Unless stated otherwise, Mueller-Hinton broth was used as nutrient medium for the assay. Linezolid (manufactured by Glenmark Pharma Ltd; Batch no: K2005028) was used as known standard in all in-vitro experiments. For preparation of the stock solution the compound PM181104 was dissolved in chloroform (5% of the total required volume) and diluted using methanol (95% of the total required volume)."}, "E. faecium (R-2)": {"system": "E. faecium (R-2)", "format": "cell-based, Enterococcus faecium", "settings": "E. faecium R-2 (VRE)", "description": "as §1"}, "E. faecium ATCC 51559": {"system": "E. faecium ATCC 51559", "format": "cell-based, Enterococcus faecium", "description": "as §1"}, "S. aureus KEM-MRSA8": {"system": "S. aureus KEM-MRSA8", "assay": "MIC, Macro-broth dilution method", "format": "cell-based, Staphylococcus aureus", "description": "as §1"}, "S. aureus KEM-MRSA20": {"system": "S. aureus KEM-MRSA20", "assay": "MIC, Macro-broth dilution method", "format": "cell-based, Staphylococcus aureus", "description": "as §1"}, "S. aureus Rehaja-MRSA1": {"system": "S. aureus Rehaja-MRSA1", "assay": "MIC, Macro-broth dilution method", "format": "cell-based, Staphylococcus aureus", "description": "as §1"}, "S. aureus KEM-MRSA22": {"system": "S. aureus KEM-MRSA22", "assay": "MIC, Macro-broth dilution method", "format": "cell-based, Staphylococcus aureus", "description": "as §1"}, "S. aureus KEM-MRSA24": {"system": "S. aureus KEM-MRSA24", "assay": "MIC, Macro-broth dilution method", "format": "cell-based, Staphylococcus aureus", "description": "as §1"}, "S. aureus KEM-MRSA23": {"system": "S. aureus KEM-MRSA23", "assay": "MIC, Macro-broth dilution method", "format": "cell-based, Staphylococcus aureus", "description": "as §1"}, "S. aureus SG511": {"system": "S. aureus SG511", "assay": "MIC, Macro-broth dilution method", "format": "cell-based, Staphylococcus aureus", "description": "as §1"}, "S. aureus (3066)": {"system": "S. aureus (3066)", "assay": "MIC, Macro-broth dilution method", "format": "cell-based, Staphylococcus aureus", "description": "as §1"}, "S. aureus wien13": {"system": "S. aureus wien13", "assay": "MIC, Macro-broth dilution method", "format": "cell-based, Staphylococcus aureus", "description": "as §1"}, "S. aureus C1 3184": {"system": "S. aureus C1 3184", "assay": "MIC, Macro-broth dilution method", "format": "cell-based, Staphylococcus aureus", "description": "as §1"}, "S. aureus KEM-MRSA12": {"system": "S. aureus KEM-MRSA12", "assay": "MIC, Macro-broth dilution method", "format": "cell-based, Staphylococcus aureus", "description": "as §1"}, "S. aureus Lilavati-MRSA3": {"system": "S. aureus Lilavati-MRSA3", "assay": "MIC, Macro-broth dilution method", "format": "cell-based, Staphylococcus aureus", "description": "as §1"}, "S. aureus KEM-MRSA18": {"system": "S. aureus KEM-MRSA18", "assay": "MIC, Macro-broth dilution method", "format": "cell-based, Staphylococcus aureus", "description": "as §1"}, "S. aureus KEM-MRSA21": {"system": "S. aureus KEM-MRSA21", "assay": "MIC, Macro-broth dilution method", "format": "cell-based, Staphylococcus aureus", "description": "as §1"}, "S. aureus (E710)": {"system": "S. aureus (E710)", "assay": "MIC, Macro-broth dilution method", "format": "cell-based, Staphylococcus aureus", "settings": "S. aureus MRSA E710", "description": "as §1"}, "S. aureus KEM-MRSA2": {"system": "S. aureus KEM-MRSA2", "assay": "MIC, Macro-broth dilution method", "format": "cell-based, Staphylococcus aureus", "description": "as §1"}, "S. aureus KEM-MRSA25": {"system": "S. aureus KEM-MRSA25", "assay": "MIC, Macro-broth dilution method", "format": "cell-based, Staphylococcus aureus", "description": "as §1"}, "S. aureus (20666)": {"system": "S. aureus (20666)", "assay": "MIC, Macro-broth dilution method", "format": "cell-based, Staphylococcus aureus", "description": "as §1"}, "[1]": {"system": "Enterococcus faecium ATCC 47077", "assay": "Kidney infection model", "format": "in vivo, Balb/C mice", "settings": "5 mg/kg intravenously at 4, 24 and 48 hours post-infection, kidneys harvested at 72 hours", "description": "(§2) The in-vivo potency was established by protection dose (PD) determinations of the compound PM181104 for its antibiotic activity in three animal models using either male or female Balb/C mice.\n(§3) The models used were the general purpose efficacy testing models and organ/tissue specific efficacy testing models. The general purpose efficacy testing models used were systemic infection model (septicemia), and localized infection model (neutropenic thigh model). The Organ/Tissue specific infection models used for efficacy testing were kidney, lung infection, and skin abscess model.\n0.2 ml of 2% λ Carrageenan was administered intravenously to Balb/C mice 7 days prior to infection. Overnight grown log phase culture of Enterococcus faecium ATCC 47077 adjusted to approximately 10^9 cfu/ml, was injected intravenously to the mice at a volume of 0.2 ml. PM181104 solution, prepared in cremophor-ethanol formulation as described in example 14, was administered intravenously to the mice at 4 hours, 24 hours and 48 hours post-infection. At 72 hours post infection, the animals were sacrificed and kidneys were harvested to determine the bacterial load. […] Linezolid (manufactured by Glenmark Pharma Ltd; Batch no: K2005028) at 25 mg/kg and Vancomycin hydrochloride (manufactured by HiMedia; Catalogue no: RM217-500 mg; Lot no: 06-0350) at 150 mg/kg dose."}, "B. subtilis": {"system": "B. subtilis", "assay": "MIC, Macro-broth dilution method", "format": "cell-based, Bacillus subtilis", "description": "as §1"}, "B. subtilis ATCC 6633": {"system": "B. subtilis ATCC 6633", "assay": "MIC, Macro-broth dilution method", "format": "cell-based, Bacillus subtilis", "description": "as §1"}, "[2]": {"system": "Staphylococcus aureus subsp. aureus ATCC 33591", "format": "cell-based", "settings": "S. aureus MRSA ATCC 33591", "description": "as §1"}, "E. faecalis, ATCC 51299": {"system": "E. faecalis, ATCC 51299", "format": "cell-based", "description": "as §1"}, "E. faecalis ATCC 51575": {"system": "E. faecalis ATCC 51575", "format": "cell-based", "description": "as §1"}, "[3]": {"system": "methicillin resistant S. aureus E710 (MRSA)", "format": "in vivo, Balb/C mice", "settings": "5 mg/kg intravenously two hours post infection", "description": "as §2, §3\nBalb/C mice were infected subcutaneously with approximately 10^8 cfu of an overnight grown culture of methicillin resistant S. aureus E710 (MRSA). The bacteria were suspended in 1:1 mixture of 2% cytodex beads in normal saline (0.85% sodium chloride). PM181104 was prepared in cremophor-ethanol formulation as described in example 14. The solution was administered intravenously at 2.5 mg, 5 mg and 10 mg/kg doses, two hours post infection. Each experimental group consisted of six animals. Following abscess formation the animals were sacrificed and abscess harvested to determine the viable counts. […] Linezolid (manufactured by Glenmark Pharma Ltd; Batch no: K2005028) at 50 mg/kg dose."}}}
{"smiles": "C=C(NC(=O)C(=C)NC(=O)C1CCCN1C(=O)c1nc(-c2ccc(-c3nc(C(=O)NC(=C)C(=O)NC(C)C(N)=O)cs3)c(-c3csc(C4Cc5nc(cs5)C(=O)NC(Cc5ccccc5)C5=NC(CS5)C(=O)NC(Cc5ccc(O)cc5)C(=O)N5CCCC5c5nc(cs5)C(=O)N4)n3)n2)oc1C)C(N)=O", "note": "(stereo not shown) [PM181104]", "values": [{"measurement": "MIC", "setting": "B. megaterium FH 1127", "result": 0.00781, "unit": "µg/mL"}, {"measurement": "MIC", "setting": "E. faecium (R-2)", "result": 0.00781, "unit": "µg/mL"}, {"measurement": "MIC", "setting": "E. faecium ATCC 51559", "result": 0.00781, "unit": "µg/mL"}, {"measurement": "MIC", "setting": "S. aureus KEM-MRSA8", "result": 0.01563, "unit": "µg/mL"}, {"measurement": "MIC", "setting": "S. aureus KEM-MRSA20", "result": 0.01563, "unit": "µg/mL"}, {"measurement": "MIC", "setting": "S. aureus Rehaja-MRSA1", "result": 0.03125, "unit": "µg/mL"}, {"measurement": "MIC", "setting": "S. aureus KEM-MRSA22", "result": 0.00781, "unit": "µg/mL"}, {"measurement": "MIC", "setting": "S. aureus KEM-MRSA24", "result": 0.00781, "unit": "µg/mL"}, {"measurement": "MIC", "setting": "S. aureus KEM-MRSA23", "result": 0.01563, "unit": "µg/mL"}, {"measurement": "MIC", "setting": "S. aureus SG511", "result": 0.0625, "unit": "µg/mL"}, {"measurement": "MIC", "setting": "S. aureus (3066)", "result": 0.03125, "unit": "µg/mL"}, {"measurement": "MIC", "setting": "S. aureus wien13", "result": 0.0625, "unit": "µg/mL"}, {"measurement": "MIC", "setting": "S. aureus C1 3184", "result": 0.0625, "unit": "µg/mL"}, {"measurement": "MIC", "setting": "S. aureus KEM-MRSA12", "result": 0.01563, "unit": "µg/mL"}, {"measurement": "MIC", "setting": "S. aureus Lilavati-MRSA3", "result": 0.01563, "unit": "µg/mL"}, {"measurement": "MIC", "setting": "S. aureus KEM-MRSA18", "result": 0.01563, "unit": "µg/mL"}, {"measurement": "MIC", "setting": "S. aureus KEM-MRSA21", "result": 0.01563, "unit": "µg/mL"}, {"measurement": "MIC", "setting": "S. aureus (E710)", "result": 0.03125, "unit": "µg/mL"}, {"measurement": "MIC", "setting": "S. aureus KEM-MRSA2", "result": 0.03125, "unit": "µg/mL"}, {"measurement": "MIC", "setting": "S. aureus KEM-MRSA25", "result": 0.01563, "unit": "µg/mL"}, {"measurement": "MIC", "setting": "S. aureus (20666)", "result": 0.01563, "unit": "µg/mL"}, {"measurement": "decrease in bacterial count in kidneys", "setting": "[1]", "result": "approximately 1 log"}, {"measurement": "MIC", "setting": "B. subtilis", "result": 0.01563, "unit": "µg/mL"}, {"measurement": "MIC", "setting": "B. subtilis ATCC 6633", "result": 0.00781, "unit": "µg/mL"}, {"measurement": "MIC", "setting": "[2]", "result": 0.03125, "unit": "µg/mL"}, {"measurement": "MIC", "setting": "E. faecalis, ATCC 51299", "result": 0.01563, "unit": "µg/mL"}, {"measurement": "MIC", "setting": "E. faecalis ATCC 51575", "result": 0.03125, "unit": "µg/mL"}, {"measurement": "decrease in bacterial count in abscess", "setting": "[3]", "result": "approximately 1 log"}]}
